Common to all, as to test: NCI anticancer screen, dose series, 48 h
For experiment [1], the system named is DU-145 prostate.
The subject of experiment [2] is HT29 colon.
For experiment [3], the system named is PC-3 prostate.
Experiment [4] relates to BT-549 breast.
Experiment [5] relates to LOX IMVI melanoma.
Experiment [6] deals with IGROV1 ovarian.
In experiment [7] the test system is A549 NSCLC.
The subject of experiment [8] is RPMI-8226 leukemia.
In experiment [9] the test system is SF-295 CNS.
Experiment [10] concerns SNB-75 CNS.

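The compound was tested at five concentrations on cells cultured in 96-well plates, with a 48-hour exposure period. Here, GI50 denotes the concentration required for 50% inhibition of growth. At the TGI there is no net growth.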 Where a SMILES comes first, the peptide text is derived from it. [ ]: non-standard residue; d: D form. ξ: configuration not given here. Pentanoyl(2-O,4-OH,5-Cl) = O=C(O)C(O)CC(O)CCl; Ile(3ξ) = CCC(C)[C@H](N)C(=O)O; NMeV = CN[C@H](C(=O)O)C(C)C; NMeA = CN[C@@H](C)C(=O)O; βAla = NCCC(=O)O

Turning to `CN1CCN(CCCOC(=O)c2c3c(n4ccccc24)C(=O)c2ncccc2C3=O)CC1`, the GI50 in [1] is below 0.01 µM; in experiment [2], 0.164 µM; in [3], below 0.0232 µM; in experiment [4], 0.426 µM; in experiment [5], below 0.01 µM; in experiment [6] it was below 0.0194 µM. In addition, the GI50 in experiment [7] was below 0.01 µM; in experiment [8], 65.3 nM; in experiment [9], below 0.0117 µM; in experiment [10], below 0.0142 µM. The TGI came to 1.3 µM in experiment [1]; 2.18 µM in experiment [2]; 16.7 µM in experiment [3]; 16.3 µM in experiment [4]; 0.0334 µM in experiment [5]; 4.71 µM in [6]. Also, the TGI was found to be 0.0593 µM in experiment [7], 0.199 µM in [9] and 0.105 µM in experiment [10].
Consider `CCN(CC)CCN1C(=O)C2C3C(C)=CC(OC(C)=O)(CC3C)C2C1=O` (stereo not given), for which the GI50 in experiment [1], in [2], in experiment [3], in experiment [4], in [5] and in [6] was above 100 µM throughout. In addition, the GI50 in experiment [7], in experiment [9] and in experiment [10] was above 100 µM each time. In addition, the TGI in experiment [1], in experiment [2], in experiment [3], in experiment [4], in experiment [5] and in experiment [6] was above 100 µM throughout. The TGI in experiment [7], in experiment [9] and in experiment [10] was above 100 µM in each case.
For the compound `CCC(C)[C@@H]1NC(=O)[C@@H]2CCCN2C(=O)C(CC(O)CCl)OC(=O)CCNC(=O)[C@H](C)N(C)C(=O)[C@H](C(C)C)N(C)C1=O` (stereo not given in full) (cyclo([Ile(3ξ)][NMeV][NMeA][βAla][Pentanoyl(2-O,4-OH,5-Cl)]P)), the TGI in [1], in experiment [2], in experiment [3], in [4], in experiment [6] and in experiment [7] was above 100 µM throughout. The results for the TGI in experiment [8], in experiment [9] and in experiment [10] were above 100 µM, 70.4 µM and above 100 µM, respectively.
In the case of `[Cu].c1ccc2c(c1)C1=NC2=NC2=NC(=NC3=NC(=NC4=NC(=N1)c1ccccc14)c1ccccc13)c1ccccc12`, the GI50 in [1], in [2], in experiment [3], in [4], in [5] and in experiment [6] was above 100 µM throughout. Also, the GI50 was above 100 µM in experiment [7], above 100000 nM in experiment [8], above 100 µM in experiment [9] and above 100 µM in experiment [10]. Also, the TGI in experiment [1], in [2], in experiment [3], in [4], in [5] and in experiment [6] was above 100 µM each time. Moreover, the TGI in experiment [7], in [8], in experiment [9] and in [10] was above 100 µM throughout.
With `CCOc1cc(/C=C/C(=O)CC(=O)/C=C/c2ccc(OC(=O)CNc3nc4ccc(OC)cc4s3)c(OCC)c2)ccc1OC(=O)CNc1nc2ccc(OC)cc2s1`, the GI50 in [1] was 3.17 µM; in experiment [2] it was 2.28 µM; in [3], 5.08 µM; in experiment [4], 2.62 µM; in experiment [5] it was 3.28 µM; in experiment [7] it was 4.94 µM. Also, the GI50 in [8] was 1690 nM; in [9], 15.4 µM; in [10] it was 6.77 µM. Moreover, the TGI in experiment [1] worked out at 12.3 µM; in experiment [2] it was 4.8 µM; in experiment [3], 67.3 µM; in [4], 8.78 µM; in [5], 12.1 µM; in experiment [7], 31 µM. Further, the TGI in experiment [8] worked out at 4.29 µM; in [9], 33.2 µM; in experiment [10], 34.3 µM.
As to `Cc1cc[c]([Sb]2[O]C(CO)C(C(O)C(O)C(=O)O)[O]2)cc1` (stereo not given), the GI50 in [1] is 38.5 µM; in experiment [2], 46.4 µM; in experiment [3], 57.7 µM; in [4], above 100 µM; in experiment [5], 39.9 µM; in experiment [6], above 100 µM. The GI50 in [7] is 35.3 µM; in [9], 61.1 µM; in experiment [10], 23 µM. Besides, the TGI in experiment [1], in [2], in experiment [3], in experiment [4], in experiment [5] and in experiment [6] was above 100 µM in each case. Moreover, the TGI is above 100 µM in [7], above 100 µM in experiment [9] and 76.8 µM in experiment [10].
`COc1ccc(-c2cc(=O)c3c(C)ccnc3[nH]2)cc1`: the TGI in experiment [1] was above 100 µM; in [2] it was 40.5 µM; in experiment [3], above 100 µM; in [4], 67.3 µM; in experiment [5] it was above 100 µM; in experiment [6], above 100 µM. The TGI is above 100 µM in [7], 53 µM in experiment [8] and above 100 µM in experiment [9]. Besides, the values for the GI50 in experiment [3] and in experiment [9] were 18.1 µM and 19.5 µM, respectively.
Consider `COc1cc(OC)c(OC)cc1/C=C/c1ccccn1`, for which the TGI in experiment [1], in experiment [2], in experiment [3], in experiment [4], in experiment [5] and in experiment [6] was above 10 µM in each case. For the same compound, the TGI in experiment [7], in [9] and in [10] was above 10 µM in each case.
Regarding `CCCCCCCCCCCC1=NC(C)(C)CN1C(C)C`, the GI50 is 5.46 µM in [1]; 2.12 µM in [3]; 9.22 µM in experiment [4]; 2.32 µM in experiment [5]; 1.64 µM in [6]; 3.71 µM in experiment [7]. For the same compound, the GI50 in experiment [8] is 1440 nM; in [9], 3.05 µM; in experiment [10] it was 6.04 µM. The TGI in [1] was determined as 17.9 µM; in experiment [3] it was 11.1 µM; in experiment [4] it was 23.4 µM; in experiment [5], 6.85 µM; in experiment [6] it was 4.53 µM; in experiment [7], 14.6 µM. Moreover, the TGI was 3.66 µM in [8], 10.7 µM in [9] and 19.2 µM in experiment [10].

The values above are taken from PubChem BioAssay (NCI).
